Laboratory results: ChEMBL document CHEMBL1926576, “Fragment based lead discovery of small molecule inhibitors for the EPHA4 receptor tyrosine kinase” (Eur J Med Chem, 2012)

How the values were obtained:
[1] = target: Ribosomal protein S6 kinase alpha-3 (Homo sapiens) (UniProt P51812); experiment: Inhibition of RSK2 assessed as residual activity at 10 uM using [33P-ATP] by radiometric filter binding assay
[2] = target: Mitogen-activated protein kinase kinase kinase 11 (Homo sapiens) (UniProt Q16584); experiment: Inhibition of MLK3 assessed as residual activity at 10 uM using [33P-ATP] by radiometric filter binding assay
[3] = target: Dual specificity mitogen-activated protein kinase kinase 2 (Homo sapiens) (UniProt P36507); experiment: Inhibition of MKK2 assessed as residual activity at 10 uM using [33P-ATP] by radiometric filter binding assay
[4] = target: Receptor-interacting serine/threonine-protein kinase 2 (Homo sapiens) (UniProt O43353); experiment: Inhibition of RIPK2 assessed as residual activity at 10 uM using [33P-ATP] by radiometric filter binding assay
Chain of Receptor-interacting serine/threonine-protein kinase 2 (Homo sapiens) (O43353 whole entry): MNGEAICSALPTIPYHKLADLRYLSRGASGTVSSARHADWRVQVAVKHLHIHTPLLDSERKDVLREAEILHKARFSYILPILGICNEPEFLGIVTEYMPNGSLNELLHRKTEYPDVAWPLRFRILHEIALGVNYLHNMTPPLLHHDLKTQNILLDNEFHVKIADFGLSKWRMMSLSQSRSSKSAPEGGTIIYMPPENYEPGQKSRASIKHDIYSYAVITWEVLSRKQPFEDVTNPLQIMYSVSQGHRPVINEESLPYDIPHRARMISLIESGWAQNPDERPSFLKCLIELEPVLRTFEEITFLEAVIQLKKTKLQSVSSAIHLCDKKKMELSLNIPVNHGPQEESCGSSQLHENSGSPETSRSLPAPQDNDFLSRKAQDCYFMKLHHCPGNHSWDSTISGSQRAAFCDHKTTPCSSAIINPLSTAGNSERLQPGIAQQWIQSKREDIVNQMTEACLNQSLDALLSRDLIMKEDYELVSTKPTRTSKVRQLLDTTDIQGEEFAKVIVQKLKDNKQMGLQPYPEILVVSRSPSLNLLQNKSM

[5] = target: Dual specificity mitogen-activated protein kinase kinase 1 (Homo sapiens) (UniProt Q02750); experiment: Inhibition of MKK1 assessed as residual activity at 10 uM using [33P-ATP] by radiometric filter binding assay
[6] = target: NUAK family SNF1-like kinase 1 (Homo sapiens) (UniProt O60285); experiment: Inhibition of NUAK1 assessed as residual activity at 10 uM using [33P-ATP] by radiometric filter binding assay
Chain of NUAK family SNF1-like kinase 1 (Homo sapiens) (O60285 whole entry): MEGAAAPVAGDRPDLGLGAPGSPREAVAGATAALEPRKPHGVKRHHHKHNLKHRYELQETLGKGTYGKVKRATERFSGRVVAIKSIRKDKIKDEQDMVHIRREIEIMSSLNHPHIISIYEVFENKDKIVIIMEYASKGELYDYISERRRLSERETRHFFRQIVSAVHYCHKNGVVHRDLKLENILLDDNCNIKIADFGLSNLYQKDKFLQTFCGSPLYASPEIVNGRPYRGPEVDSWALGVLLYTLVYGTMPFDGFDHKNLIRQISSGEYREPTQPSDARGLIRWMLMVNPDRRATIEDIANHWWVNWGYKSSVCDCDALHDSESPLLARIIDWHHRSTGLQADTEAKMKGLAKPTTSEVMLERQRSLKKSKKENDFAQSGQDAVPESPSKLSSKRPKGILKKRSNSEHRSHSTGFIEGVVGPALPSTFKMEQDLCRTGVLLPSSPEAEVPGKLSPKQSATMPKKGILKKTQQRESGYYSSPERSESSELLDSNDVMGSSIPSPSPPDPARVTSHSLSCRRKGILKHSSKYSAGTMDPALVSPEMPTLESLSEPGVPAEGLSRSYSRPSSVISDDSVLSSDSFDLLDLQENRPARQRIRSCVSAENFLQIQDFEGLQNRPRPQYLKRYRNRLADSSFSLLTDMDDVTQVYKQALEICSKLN

[7] = target: Serine/threonine-protein kinase PAK 2 (Homo sapiens) (UniProt Q13177); experiment: Inhibition of PAK2 assessed as residual activity at 10 uM using [33P-ATP] by radiometric filter binding assay
[8] = target: Serine/threonine-protein kinase N2 (Homo sapiens) (UniProt Q16513); experiment: Inhibition of PRK2 assessed as residual activity at 10 uM using [33P-ATP] by radiometric filter binding assay
Chain of Serine/threonine-protein kinase N2 (Homo sapiens) (Q16513 whole entry, looked up): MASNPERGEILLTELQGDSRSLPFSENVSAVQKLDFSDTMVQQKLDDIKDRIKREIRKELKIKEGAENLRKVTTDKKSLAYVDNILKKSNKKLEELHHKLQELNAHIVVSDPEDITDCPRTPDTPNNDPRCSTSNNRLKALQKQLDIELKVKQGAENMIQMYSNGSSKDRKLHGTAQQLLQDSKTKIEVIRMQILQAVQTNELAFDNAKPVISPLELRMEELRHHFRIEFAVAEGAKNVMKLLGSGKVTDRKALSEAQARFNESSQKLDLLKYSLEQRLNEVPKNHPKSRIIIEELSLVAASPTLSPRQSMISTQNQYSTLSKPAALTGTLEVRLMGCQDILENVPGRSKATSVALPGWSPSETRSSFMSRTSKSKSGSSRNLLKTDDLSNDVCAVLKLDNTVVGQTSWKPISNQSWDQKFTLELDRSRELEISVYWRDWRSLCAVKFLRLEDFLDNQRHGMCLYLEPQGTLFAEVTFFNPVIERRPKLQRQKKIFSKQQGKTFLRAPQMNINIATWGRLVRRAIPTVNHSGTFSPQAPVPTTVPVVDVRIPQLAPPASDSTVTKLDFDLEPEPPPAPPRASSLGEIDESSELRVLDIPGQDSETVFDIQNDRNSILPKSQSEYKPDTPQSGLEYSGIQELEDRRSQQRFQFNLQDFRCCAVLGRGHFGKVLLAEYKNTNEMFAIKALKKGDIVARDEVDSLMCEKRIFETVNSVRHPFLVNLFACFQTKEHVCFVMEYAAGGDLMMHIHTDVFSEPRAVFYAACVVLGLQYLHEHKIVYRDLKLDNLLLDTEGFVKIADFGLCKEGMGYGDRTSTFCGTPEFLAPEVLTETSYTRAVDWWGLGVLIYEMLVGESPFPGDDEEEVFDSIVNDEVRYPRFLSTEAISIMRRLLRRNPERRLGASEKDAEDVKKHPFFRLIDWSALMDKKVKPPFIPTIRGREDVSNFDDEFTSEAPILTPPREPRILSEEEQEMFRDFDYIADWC

[9] = target: Proto-oncogene tyrosine-protein kinase Src (Homo sapiens) (UniProt P12931); experiment: Inhibition of Src assessed as residual activity at 10 uM using [33P-ATP] by radiometric filter binding assay
[10] = target: Mitogen-activated protein kinase 11 (Homo sapiens) (UniProt Q15759); experiment: Inhibition of p38beta MAPK assessed as residual activity at 10 uM using [33P-ATP] by radiometric filter binding assay
Chain of Mitogen-activated protein kinase 11 (Homo sapiens) (Q15759 whole entry): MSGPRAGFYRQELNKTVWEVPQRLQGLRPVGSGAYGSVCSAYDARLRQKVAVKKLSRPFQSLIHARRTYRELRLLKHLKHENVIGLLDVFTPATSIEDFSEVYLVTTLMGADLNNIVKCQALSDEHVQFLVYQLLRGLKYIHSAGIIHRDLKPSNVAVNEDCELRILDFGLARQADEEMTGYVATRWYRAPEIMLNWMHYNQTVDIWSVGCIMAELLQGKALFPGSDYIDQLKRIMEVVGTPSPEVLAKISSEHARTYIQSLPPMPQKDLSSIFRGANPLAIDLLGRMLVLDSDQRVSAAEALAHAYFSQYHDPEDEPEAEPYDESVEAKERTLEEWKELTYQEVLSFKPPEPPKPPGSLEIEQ

Ephrin type-A receptor 4 = Ephrin type-A receptor 4 (Homo sapiens, UniProt P54764); experiment: Inhibition of his-tagged EPHA4-mediated poly(Glu,Tyr) phosphorylation after 75 mins using E4:Y1 as substrate by fluorescence assay
[11] = target: Insulin-like growth factor 1 receptor (Homo sapiens) (UniProt P08069); experiment: Inhibition of IGF-1R assessed as residual activity at 10 uM using [33P-ATP] by radiometric filter binding assay
[12] = target: Serine/threonine-protein kinase 33 (Homo sapiens) (UniProt Q9BYT3); experiment: Inhibition of STK33 assessed as residual activity at 10 uM using [33P-ATP] by radiometric filter binding assay
[13] = Inhibition of VEGFR assessed as residual activity at 10 uM using [33P-ATP] by radiometric filter binding assay
[14] = target: Inhibitor of nuclear factor kappa-B kinase subunit epsilon (Homo sapiens) (UniProt Q14164); experiment: Inhibition of IKKepsilon assessed as residual activity at 10 uM using [33P-ATP] by radiometric filter binding assay
[15] = target: Testis-specific serine/threonine-protein kinase 1 (Homo sapiens) (UniProt Q9BXA7); experiment: Inhibition of TSSK1 assessed as residual activity at 10 uM using [33P-ATP] by radiometric filter binding assay
Chain of Testis-specific serine/threonine-protein kinase 1 (Homo sapiens) (Q9BXA7 whole entry): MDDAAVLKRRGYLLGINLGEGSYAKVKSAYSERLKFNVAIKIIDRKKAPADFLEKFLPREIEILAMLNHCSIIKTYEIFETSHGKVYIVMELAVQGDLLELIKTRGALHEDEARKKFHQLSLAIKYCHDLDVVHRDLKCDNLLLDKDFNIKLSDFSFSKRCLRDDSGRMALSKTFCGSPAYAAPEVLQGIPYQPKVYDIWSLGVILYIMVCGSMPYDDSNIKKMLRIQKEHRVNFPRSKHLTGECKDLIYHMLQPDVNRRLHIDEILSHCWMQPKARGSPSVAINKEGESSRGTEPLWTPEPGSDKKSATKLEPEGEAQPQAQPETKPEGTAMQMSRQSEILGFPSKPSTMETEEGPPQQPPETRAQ

[16] = target: Mitogen-activated protein kinase 3 (Homo sapiens) (UniProt P27361); experiment: Inhibition of ERK1 assessed as residual activity at 10 uM using [33P-ATP] by radiometric filter binding assay
[17] = target: Protein kinase C zeta type (Homo sapiens) (UniProt Q05513); experiment: Inhibition of PKCzeta assessed as residual activity at 10 uM using [33P-ATP] by radiometric filter binding assay
Chain of Protein kinase C zeta type (Homo sapiens) (Q05513 whole entry): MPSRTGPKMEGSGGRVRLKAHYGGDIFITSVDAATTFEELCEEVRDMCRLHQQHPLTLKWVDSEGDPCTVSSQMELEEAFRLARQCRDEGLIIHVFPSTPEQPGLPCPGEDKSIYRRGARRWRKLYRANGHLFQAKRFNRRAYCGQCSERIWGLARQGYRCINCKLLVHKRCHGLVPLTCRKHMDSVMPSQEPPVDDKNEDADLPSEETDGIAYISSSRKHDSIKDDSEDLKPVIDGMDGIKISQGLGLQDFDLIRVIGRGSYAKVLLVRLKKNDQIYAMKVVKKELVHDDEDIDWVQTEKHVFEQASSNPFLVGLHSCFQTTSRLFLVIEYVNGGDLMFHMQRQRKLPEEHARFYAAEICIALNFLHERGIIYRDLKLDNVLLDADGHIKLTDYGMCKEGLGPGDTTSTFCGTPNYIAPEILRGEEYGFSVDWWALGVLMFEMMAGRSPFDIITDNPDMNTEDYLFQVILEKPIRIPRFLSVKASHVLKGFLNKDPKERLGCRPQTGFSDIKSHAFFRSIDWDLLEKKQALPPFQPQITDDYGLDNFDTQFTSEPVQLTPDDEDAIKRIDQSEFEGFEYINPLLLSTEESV

[18] = target: Aurora kinase B (Homo sapiens) (UniProt Q96GD4); experiment: Inhibition of aurora-B assessed as residual activity at 10 uM using [33P-ATP] by radiometric filter binding assay
[19] = target: Cyclin-dependent kinase 2/cyclin A (Homo sapiens) (UniProt P24941+P20248+P78396); experiment: Inhibition of CDK2/Cyclin A assessed as residual activity at 10 uM using [33P-ATP] by radiometric filter binding assay; format: protein-complex assay
[20] = target: Calcium/calmodulin-dependent protein kinase type 1 (Homo sapiens) (UniProt Q14012); experiment: Inhibition of CAMK1 assessed as residual activity at 10 uM using [33P-ATP] by radiometric filter binding assay
Chain of Calcium/calmodulin-dependent protein kinase type 1 (Homo sapiens) (Q14012 whole entry, looked up): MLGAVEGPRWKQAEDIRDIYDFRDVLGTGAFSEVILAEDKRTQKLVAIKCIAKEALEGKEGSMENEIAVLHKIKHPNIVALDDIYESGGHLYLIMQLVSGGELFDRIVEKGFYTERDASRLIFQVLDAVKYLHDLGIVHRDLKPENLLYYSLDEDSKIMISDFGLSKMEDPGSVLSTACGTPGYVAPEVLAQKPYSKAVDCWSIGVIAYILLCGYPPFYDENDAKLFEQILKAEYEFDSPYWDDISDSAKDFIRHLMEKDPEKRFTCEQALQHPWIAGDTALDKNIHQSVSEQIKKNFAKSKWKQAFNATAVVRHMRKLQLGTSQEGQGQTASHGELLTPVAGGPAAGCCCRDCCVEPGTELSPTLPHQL

[21] = target: Tyrosine-protein kinase Yes (Homo sapiens) (UniProt P07947); experiment: Inhibition of YES1 assessed as residual activity at 10 uM using [33P-ATP] by radiometric filter binding assay
[22] = target: Dual specificity protein kinase TTK (Homo sapiens) (UniProt P33981); experiment: Inhibition of TTK assessed as residual activity at 10 uM using [33P-ATP] by radiometric filter binding assay
Chain of Dual specificity protein kinase TTK (Homo sapiens) (P33981 whole entry): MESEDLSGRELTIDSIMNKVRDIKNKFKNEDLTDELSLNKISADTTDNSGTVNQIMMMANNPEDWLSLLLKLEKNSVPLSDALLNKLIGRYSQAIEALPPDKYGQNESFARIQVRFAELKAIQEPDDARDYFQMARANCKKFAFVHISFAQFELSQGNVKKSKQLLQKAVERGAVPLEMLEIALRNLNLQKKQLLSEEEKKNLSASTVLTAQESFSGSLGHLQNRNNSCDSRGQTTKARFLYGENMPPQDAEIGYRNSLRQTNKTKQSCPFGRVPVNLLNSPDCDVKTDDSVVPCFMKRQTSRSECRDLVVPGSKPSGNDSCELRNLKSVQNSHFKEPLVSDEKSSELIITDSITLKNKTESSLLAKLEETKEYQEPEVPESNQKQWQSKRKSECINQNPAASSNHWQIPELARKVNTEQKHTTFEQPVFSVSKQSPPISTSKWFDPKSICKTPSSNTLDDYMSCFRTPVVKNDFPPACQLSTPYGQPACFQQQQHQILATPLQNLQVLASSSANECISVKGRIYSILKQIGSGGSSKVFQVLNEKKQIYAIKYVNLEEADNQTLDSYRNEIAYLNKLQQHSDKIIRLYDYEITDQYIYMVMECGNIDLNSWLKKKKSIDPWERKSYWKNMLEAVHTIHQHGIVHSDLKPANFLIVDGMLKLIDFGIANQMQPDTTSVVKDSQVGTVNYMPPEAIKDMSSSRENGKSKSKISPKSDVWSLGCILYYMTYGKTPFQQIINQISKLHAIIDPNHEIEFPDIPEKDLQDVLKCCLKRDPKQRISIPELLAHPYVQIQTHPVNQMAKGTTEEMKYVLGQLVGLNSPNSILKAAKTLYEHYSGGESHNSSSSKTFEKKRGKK

[23] = target: Serine/threonine-protein kinase pim-1 (Homo sapiens) (UniProt P11309); experiment: Inhibition of PIM1 assessed as residual activity at 10 uM using [33P-ATP] by radiometric filter binding assay
[24] = target: SRSF protein kinase 1 (Homo sapiens) (UniProt Q96SB4); experiment: Inhibition of SRPK1 assessed as residual activity at 10 uM using [33P-ATP] by radiometric filter binding assay
[25] = Inhibition of CK2 assessed as residual activity at 10 uM using [33P-ATP] by radiometric filter binding assay

Cc1ccc(F)cc1-c1nc2[nH]nc(N)c2c2c1CCCC2
Activity [1]: 82% | Activity [2]: 60% | Activity [3]: 31% | Activity [4]: 17% | Activity [5]: 29% | Activity [6]: 79% | Activity [7]: 79% | Activity [8]: 89% | Activity [9]: 25% | Activity [10]: 25% | IC50 (Ephrin type-A receptor 4): 4.5 µM | Activity [11]: 71% | Activity [12]: 97% | Activity [13]: 76% | Activity [14]: 96% | Activity [15]: 75% | Activity [16]: 97% | Activity [17]: 106% | Activity [18]: 49% | Activity [19]: 87% | Activity [20]: 75% | Activity [21]: 18% | Activity [22]: 81% | Activity [23]: 76% | Activity [24]: 89% | Activity [25]: 93%
